# In patent publication US8450479B2, “3-substituted-4-oxo-3,4-dihydro-imidazo[5,1-d][1,2,3,5-tetrazine-8-carboxylic acid amides and their use” (Pharminox Limited, priority 2007, dated 2013):
# Values joined by “and” are separate entries in the source; they are usually repeats but may differ in a detail not shown here. Equal values may be shown once. Read-outs that look alike come from different tables or passages of the source.
# How the values were obtained:
# Assay in all cases: MTT assay for 7-day toxicity assay
# Type in all cases: cell-based
# Glioma SNB19V (MGMT−) = settings: Glioma SNB19V (MGMT−)
# Description: (§1) The cell culture techniques were carried out in a Class II microbiological safety cabinet which was swabbed with 70% IMS in distilled water before each use. […] MRC-5 cells were cultured in EMEM. Cells were grown in a humidified incubator containing 5% CO2 at 37° C. Cells were sub-cultured when growth exceeded approximately 80% confluence, normally twice weekly. The medium was aspirated from the flask and approximately 0.8 mL trypsin-EDTA 1× solution added. The cells were re-incubated at 37° C. until they visibly detached from the flask. The cell suspension was then re-suspended in 5 mL medium and 0.5-1 mL of the cell suspension was transferred to a new flask (25 cm^2) with 7 mL culture medium. The cells were further incubated at 37° C. incubator. Cells were disposed after passage nearly 30 times in order to minimize phenotypic drift. New batches of cells were taken from liquid nitrogen storage by thawing rapidly (37° C. water bath) and re-suspension in a 25 cm^2 flask with 10 mL of culture medium. Two passages were allowed to resume normal growth. For long-term maintenance, viable cells at 60-80% confluence were detached by minimum amount of trypsin/EDTA and re-suspended in sterile filtered freezing medium (95% FBS, 5% DMSO), transferred to sterile cryogenic vials, and frozen overnight at −20° C. followed by −80° C. for 1-2 days and stored in liquid nitrogen for long term storage.
# (§2) Most test compounds, including temozolomide, were prepared as stock solution (100 mM) in DMSO and stored at −20° C. for not more than 6 months.
# (§3) Glioma cell lines, SNB19 and U373, both MGMT transfected (i.e., SNB19M and U373M) and vector controls (i.e., SNB19V and U373V); colorectal carcinoma cell lines, HCT116, HT29, and DLD1; melanoma cell line, SKMEL-28; breast cell line, MCF-7; and normal human fetal lung fibroblast cell line, MRC-5; were harvested at 60-80% confluence—during the logarithmic phase of growth.
# (§4) Following harvesting, cells in suspension were gently syringed through a 23 gauge needle to obtain a near-single cell suspension. The desired cell seeding densities were used and added into 96-well plates in 180 μL culture medium if only one test compound was to be added, or 160 μL if two test compounds were to be added in combination, which were allowed to attach at 37° C. (5% CO2) overnight. For the 7 day assay, the cell seeding density for different cell lines was as follows: SNB19V, SNB19M: 650 cells/well; U373V, U373M: 650 cells/well; SNB19VR, U373VR: 650 cells/well; HCT116, DLD-1, SKMEL-28, MRC-5, MCF-7: 400 cells/well.
# (§5) The two peripheral lanes were used as blank wells (cell free) and filled with 200 μL of medium in order to minimise medium evaporation from the plate. A separate time zero (T0) plate was set up alongside other plates. Serial dilutions in tissue culture medium of a 100 mM stock of test compound in DMSO were prepared immediately before each assay to ten times the final concentrations required, and then 20 μL was added to each well (200 μL total media per well) to achieve final concentrations of 0.5 μM, 1 μM, 5 μM, 10 μM, 50 μM, 100 μM, 500 μM, and 1000 μM. A minimum of four wells received the same test compound concentration. To control wells, including those in the T0 plate, 20 μL of medium was added. […] A separate plate treated in the same way, but free of test compound, was used as a measure of cell viability at the time of drug addition (day 0).
# (§6) After incubation at 37° C., 5% CO2 for 7 days (or immediately for the day 0 plate), cell viability was quantified using the MTT assay. 50 μL of sterile filtered MIT (3-(4,5-dimethylthiazol-2-yl)-2,5-diphenyltetrazolium bromide) (2 mg/mL in phosphate buffered saline) were added to each well (final concentration 0.4 mg/mL) and the plates were re-incubated for 4 hours to allow metabolic conversion of MTT by dehydrogenases in viable cells to insoluble formazan crystals.
# (§7) The intensity of absorbance is directly proportional to cell viability.
# Glioma U373M (MGMT+) = settings: Glioma U373M (MGMT+)
# Description: as §1, §2, §3, §4, §5, §6, §7
# Glioma U373V (MGMT low) = settings: Glioma U373V (MGMT low)
# Description: as §1, §2, §3, §4, §5, §6, §7
# Glioma SNB19M (MGMT+) = settings: Glioma SNB19M (MGMT+)
# Description: as §1, §2, §3, §4, §5, §6, §7
# [1] = 168 h, 7-day MTT, single determinations, read-out: GI50
# [2] = 7-day MTT, single determinations, read-out: GI50
SMILES,GI50 (Glioma SNB19V (MGMT−); [1]) [µM],GI50 (Glioma SNB19V (MGMT−); [2]),GI50 (Glioma U373M (MGMT+); [1]) [µM],GI50 (Glioma U373M (MGMT+); [2]),GI50 (Glioma U373V (MGMT low); [1]) [µM],GI50 (Glioma U373V (MGMT low); [2]),GI50 (Glioma SNB19M (MGMT+); [1]) [µM],GI50 (Glioma SNB19M (MGMT+); [2]),GI50 (Glioma SNB19V (MGMT−)),GI50 (Glioma U373M (MGMT+)),GI50 (Glioma U373V (MGMT low)),GI50 (Glioma SNB19M (MGMT+))
"NC(=O)c1ncn2c(=O)n(CCC(=O)O)nnc12 [LL-001, 3-(8-Carbamoyl-oxoimidazo[5,1-d][1,2,3,5]tetrazin-3(4H)-yl)propanoic acid]",356,355 µM,236,281 µM,234,248 µM,397,232 µM,–,–,–,–
"CC#CCn1nnc2c(C(N)=O)ncn2c1=O [EE-002, 3-But-2-ynyl-4-oxo-3,4-dihydro-imidazo[5,1-d][1,2,3,5]tetrazine-8-carboxylic acid amide]",33.5,45.8 µM,41.1,25.1 µM,42.1,31.1 µM,38.1,37.1 µM,–,–,–,–
"CN(C)C(=O)Cn1nnc2c(C(N)=O)ncn2c1=O [JJ-003, N,N-Dimethyl (8-Carbamoyl-oxoimidazo[5,1-d][1,2,3,5]tetrazin-3(4H)-yl)ethanamide]",73.6,61.8 µM,98.6,86.4 µM,92.4,77.8 µM,78.6,68.1 µM,–,–,–,–
"NC(=O)c1ncn2c(=O)n(CC(=O)N3CCOCC3)nnc12 [JJ-005, N-(8-Carbamoyl-oxoimidazo[5,1-d][1,2,3,5]tetrazin-3(4H)-yl)ethanoyl morpholine]",70.3,52.4 µM,90.4,173 µM,195,291 µM,119,84.9 µM,–,–,–,–
CC(=O)OCn1nnc2c(C(N)=O)ncn2c1=O [LL-005],56.6,40.1 µM,45.6,33.3 µM,15.7,8 µM,46,34.7 µM,–,–,–,–
"NC(=O)c1ncn2c(=O)n(Cc3c[nH]nn3)nnc12 [CC-005, 4-Oxo-3-(1H-[1,2,3]triazol-4-ylmethyl)-3,4-dihydro-imidazo[5,1-d][1,2,3,5]tetrazine-8-carboxylic acid amide]",357,239 µM,334,330 µM,261,400 µM,257,409 µM,–,–,–,–
"NC(=O)c1ncn2c(=O)n(C3CCCC3)nnc12 [FF-001, 3-Cyclopentyl-8-carbamoylimidazotetrazin-4-one]",318,266 µM,228,204 µM,169,163 µM,292,238 µM,–,–,–,–
"NC(=O)c1ncn2c(=O)n(C3CC3)nnc12 [FF-002, 3-Cyclopropyl-8-carbamoylimidazotetrazin-4-one]",516,376 µM and 392 µM,369,346 µM and 367 µM,293,386 µM and 241 µM,593,637 µM and 418 µM,–,–,–,–
"CNC(=O)Cn1nnc2c(C(N)=O)ncn2c1=O [JJ-002, N-Methyl (8-Carbamoyl-oxoimidazo[5,1-d][1,2,3,5]tetrazin-3(4H)-yl)ethanamide]",73.5,58.1 µM,306,221 µM,234,287 µM,258,235 µM,–,–,–,–
"CC(C)(C)[Si](C)(C)OCCn1nnc2c(C(N)=O)ncn2c1=O [NN-001, 3-(2-(tert-Butyldimethylsilyloxy)ethyl)-4-oxo-3,4-dihydroimidazo[5,1-d][1,2,3,5]tetrazine-8-carboxamide]",–,–,–,–,–,–,–,–,128 µM and 97 µM,98.2 µM and 68.3 µM,172 µM and 229 µM,182 µM and 263 µM
"C[Si](C)(C)C#CCn1nnc2c(C(N)=O)ncn2c1=O [EE-003, 4-Oxo-3-(3-trimethylsilanyl-prop-2-ynyl)-3,4-dihydro-imidazo[5,1-d][1,2,3,5]tetrazine-8-carboxylic acid amide]",41.7,36.6 µM,31.5,30 µM,26.8,33.6 µM,42.9,35.2 µM,–,–,–,–
"NC(=O)c1ncn2c(=O)n(CC3CCCC3)nnc12 [GG-002, 3-(Cyclopentyl)methyl-8-carbamoylimidazotetrazin-4-one]",888,751 µM,642,728 µM,790,> 1000 µM,796,602 µM,–,–,–,–
